The test system of the test is Acinetobacter baumannii ATCC17961. Kind of test: Antimicrobial susceptibility testing: 90% growth inhibitory concentration (IC90) determination in Iso-Sensitest broth, OD600 growth. Format: cell-based. The procedure, abridged: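 Twofold compound dilutions (e.g. 50 to 0.097 μM final) in Iso-Sensitest broth with ~5×10^(5) CFU/ml, 35±2 °C. OD600 read every 20 min over 16 h; IC90 from growth inhibition during logarithmic phase.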

Where [1] appears, read: Acinetobacter baumannii, ATCC17961, 16 h, strain ATCC 17961, OD600 growth over 16 h, read-out: A. baumannii ATCC 17961 IC90.
Where [2] appears, read: Acinetobacter baumannii, ATCC17961, 16 h, read-out: A. baumannii ATCC 17961 IC90 (uM), strain ATCC 17961, OD600 growth over 16 h.

Molecules are shown by their SMILES. Counter-ions that a name gives are not always drawn. Like-named read-outs stand apart in the source and are kept apart here.

In general, IC90 refers to the concentration needed for an effect of 90%. On to `CCc1cc(Nc2nccn3c(-c4cn(CC(F)F)nc4C(F)(F)F)cnc23)ccc1C(=O)NCC(=O)NCC1CCCN1` (stereo not shown) [Example 548, 4-[[3-[1-(2,2-difluoroethyl)-3-(trifluoromethyl)pyrazol-4-yl]imidazo[1,2-a]pyrazin-8-yl]amino]-2-ethyl-N-[2-oxo-2-(pyrrolidin-2-ylmethylamino)ethyl] benzamide formate], for which, under setting [1], the IC90 turned out to be 0.267 µM. The same measure, in the same setting: then `N[C@@H]1CCN(C(=O)CNC(=O)c2ccc(Nc3nccn4c(-c5c[nH]nc5C(F)(F)F)cnc34)cc2Cl)C1` [Example 137, N-[2-[(3R)-3-aminopyrrolidin-1-yl]-2-oxoethyl]-2-chloro-4-[[3-[3-(trifluoromethyl)-1H-pyrazol-4-yl]imidazo[1,2-a]pyrazin-8-yl]amino]benzamide], with 1.86 µM. Same read-out and setting: then `CCc1cc(Nc2nccn3c(-c4cn(CC(C)CO)nc4C(F)(F)F)cnc23)ccc1C(=O)NCCOCCN` (stereo not shown) [Example 267, N-[2-(2-aminoethoxy)ethyl]-2-ethyl-4-[[3-[1-(3-hydroxy-2-methylpropyl)-3-(trifluoromethyl)pyrazol-4-yl]imidazo[1,2-a]pyrazin-8-yl]amino]benzamide], with 0.225 µM. With `CCc1cc(Nc2nccn3c(-c4cn(C5CC(F)(F)C5)nc4C(F)(F)F)cnc23)ccc1C(=O)NCCOCCCN` [Example 670, N-(2-(3-aminopropoxy)ethyl)-4-((3-(1-(3,3-difluorocyclobutyl)-3-(trifluoromethyl)-1H-pyrazol-4-yl)imidazo[1,2-a]pyrazin-8-yl)amino)-2-ethylbenzamide formate], the IC90 under setting [2] worked out at 0.304 µM.

In the case of `CCc1cc(Nc2nccn3c(-c4c[nH]nc4C(F)(F)F)cnc23)ccc1C(=O)NC` [Example 350, 2-ethyl-N-methyl-4-[[3-[3-(trifluoromethyl)-1H-pyrazol-4-yl]imidazo[1,2-a]pyrazin-8-yl]amino]benzamide], under setting [1], the IC90 was determined as 0.371 µM. Turning to `C#CCn1cc(-c2cnc3c(Nc4cc(C)c(C(=O)NCCOCCN)c(F)c4)nccn23)c(C(F)(F)F)n1` [Example 59, N-[2-(2-aminoethoxy)ethyl]-2-fluoro-6-methyl-4-[[3-[1-prop-2-ynyl-3-(trifluoromethyl)pyrazol-4-yl]imidazo[1,2-a]pyrazin-8-yl]amino] benzamide], the IC90 (strain ATCC 17961, OD600 growth over 16 h, read-out: A. baumannii ATCC 17961 IC90) is 0.216 µM. Take `Cc1cc(Nc2nccn3c(-c4cn(CC#N)nc4C(F)(F)F)cnc23)ccc1C(=O)N1CCN(C(=O)[C@H]2C[C@H](O)CN2)CC1` [Example 426, formic acid; 2-[4-[8-[4-[4-[(2R,4S)-4-hydroxypyrrolidine-2-carbonyl]piperazine-1-carbonyl]-3-methylanilino]imidazo[1,2-a]pyrazin-3-yl]-3-(trifluoromethyl)pyrazol-1-yl]acetonitrile]: the IC90 under setting [2] was determined as 0.948 µM. `C#CCNCCCNC(=O)c1ccc(Nc2nccn3c(-c4c[nH]nc4C(F)(F)F)cnc23)cc1CC` [Example 184, 2-ethyl-N-[3-(prop-2-ynylamino)propyl]-4-[[3-[3-(trifluoromethyl)-1H-pyrazol-4-yl]imidazo[1,2-a]pyrazin-8-yl]amino]benzamide]: under setting [1], the IC90 amounted to 0.4 µM. For `CNC(=O)c1ccc(Nc2nccn3c(-c4cn(C5CNC5)nc4C(F)(F)F)cnc23)cc1Cl` [Example 348, 4-[[3-[1-(azetidin-3-yl)-3-(trifluoromethyl)pyrazol-4-yl]imidazo[1,2-a]pyrazin-8-yl]amino]-2-chloro-N-methylbenzamide hydrochloride], the IC90 under setting [1] is 1.55 µM. On to `CCc1cc(Nc2nccn3c(-c4cn(CC(F)F)nc4C(F)(F)F)cnc23)ccc1C(=O)NCC(=O)NCC1(O)CCNCC1` [Example 551, 4-[[3-[1-(2,2-difluoroethyl)-3-(trifluoromethyl)pyrazol-4-yl]imidazo[1,2-a]pyrazin-8-yl]amino]-2-ethyl-N-[2-[(4-hydroxy-4-piperidyl)methylamino]-2-oxo-ethyl]benzamide formate], for which the IC90 under setting [2] was 0.357 µM.

Values taken from US20230203043A1, “NOVEL IMIDAZOPYRAZINE DERIVATIVES” (Hoffmann-La Roche Inc., priority 2020, published 2023).
